In BindingDB's records for PubMed 20126400 (University of Oklahoma, 2010):

Experiments:
[1] = target: 5-hydroxytryptamine receptor 7 (Homo sapiens, UniProt P34969); assay: Ray2010 Assay 74
Source text: (§1) Table S2 shows raw Ki data for the current study combined with data collected from the literature for the ten additional compounds.

[2] = target: ATP-dependent translocase ABCB1 (Homo sapiens, UniProt P08183); assay: Ray2010 Assay 74
Source text: as §1

[3] = target: Beta-2 adrenergic receptor (Homo sapiens, UniProt P07550); assay: Ray2010 Assay 74
Source text: as §1

[4] = target: Cannabinoid receptor 1 (Homo sapiens, UniProt P21554); assay: Ray2010 Assay 74
Source text: as §1

[5] = target: Sigma non-opioid intracellular receptor 1 (Homo sapiens, UniProt Q99720); assay: Ray2010 Assay 74
Source text: as §1

[6] = target: 5-hydroxytryptamine receptor 2A (Rattus norvegicus, UniProt P14842); assay: Ray2010 Assay 25
Source text: ketanserin cloned PDSP web; .

[7] = target: D(2) dopamine receptor (Homo sapiens, UniProt P14416); assay: Ray2010 Assay 32
Source text: YM 09191-2 cloned PDSP web; .

[8] = target: Sigma intracellular receptor 2 (Rattus norvegicus, UniProt Q5U3Y7); assay: Ray2010 Assay 42
Source text: DTG liver .

[9] = target: Muscarinic acetylcholine receptor M2 (Rattus norvegicus, UniProt P10980); assay: Ray2010 Assay 48
Source text: (§2) N-methylacoblamine forebrain .

[10] = target: Muscarinic acetylcholine receptor M3 (Rattus norvegicus, UniProt P08483); assay: Ray2010 Assay 48
Source text: as §2

[11] = target: T1, 5-hydroxytryptamine receptor 2C (Homo sapiens, UniProt P28335); assay: Ray2010 Assay 74
T1 sequence (P28335 whole entry): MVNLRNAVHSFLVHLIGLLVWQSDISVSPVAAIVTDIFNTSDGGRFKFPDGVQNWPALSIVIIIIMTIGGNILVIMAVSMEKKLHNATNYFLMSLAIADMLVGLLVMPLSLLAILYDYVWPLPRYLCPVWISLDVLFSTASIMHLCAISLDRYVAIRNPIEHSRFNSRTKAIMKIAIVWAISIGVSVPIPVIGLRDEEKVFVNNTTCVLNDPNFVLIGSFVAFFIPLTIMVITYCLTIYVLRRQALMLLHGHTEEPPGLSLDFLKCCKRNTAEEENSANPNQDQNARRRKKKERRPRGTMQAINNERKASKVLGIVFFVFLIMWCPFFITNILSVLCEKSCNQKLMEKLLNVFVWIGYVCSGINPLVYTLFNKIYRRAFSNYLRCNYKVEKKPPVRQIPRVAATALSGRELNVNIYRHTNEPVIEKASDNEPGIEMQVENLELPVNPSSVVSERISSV
Source text: as §1

[12] = target: Gamma-aminobutyric acid receptor subunit beta-1 (Homo sapiens, UniProt P18505); assay: Ray2010 Assay 74
Source text: as §1

[13] = target: Glutamate receptor 4 (Homo sapiens, UniProt P48058); assay: Ray2010 Assay 74
Source text: as §1

[14] = target: T2, Muscarinic acetylcholine receptor M4 (Homo sapiens, UniProt P08173); assay: Ray2010 Assay 74
T2 sequence (P08173 whole entry): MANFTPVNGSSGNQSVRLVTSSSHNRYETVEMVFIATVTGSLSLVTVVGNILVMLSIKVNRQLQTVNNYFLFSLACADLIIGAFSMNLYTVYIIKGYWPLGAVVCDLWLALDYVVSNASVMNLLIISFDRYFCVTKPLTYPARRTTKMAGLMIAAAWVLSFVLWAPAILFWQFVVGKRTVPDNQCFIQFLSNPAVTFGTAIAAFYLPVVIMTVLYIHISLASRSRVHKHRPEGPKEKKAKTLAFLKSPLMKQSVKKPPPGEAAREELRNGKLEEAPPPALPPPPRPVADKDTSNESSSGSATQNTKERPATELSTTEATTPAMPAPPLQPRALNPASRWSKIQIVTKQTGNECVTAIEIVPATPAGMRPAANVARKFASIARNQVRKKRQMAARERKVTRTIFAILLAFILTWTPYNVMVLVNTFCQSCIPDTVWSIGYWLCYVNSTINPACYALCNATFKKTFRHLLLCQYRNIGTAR
Source text: as §1

[15] = target: Neuronal acetylcholine receptor subunit alpha-2/beta-2 (Homo sapiens, UniProt P17787+Q15822); assay: Ray2010 Assay 74
Source text: as §1

[16] = target: Neuronal acetylcholine receptor subunit alpha-2/beta-4 (Homo sapiens, UniProt P30926+Q15822); assay: Ray2010 Assay 74
Source text: as §1

[17] = target: Neuronal acetylcholine receptor subunit alpha-3/beta-2 (Homo sapiens, UniProt P17787+P32297); assay: Ray2010 Assay 74
Source text: as §1

[18] = target: Neuronal acetylcholine receptor subunit alpha-4/beta-2 (Homo sapiens, UniProt P17787+P43681); assay: Ray2010 Assay 74
Source text: as §1

[19] = target: Neuronal acetylcholine receptor subunit alpha-4/beta-2 (Mus musculus, UniProt O70174+Q9ERK7); assay: Ray2010 Assay 74
Source text: as §1

[20] = target: Neuronal acetylcholine receptor subunit alpha-4/beta-4 (Homo sapiens, UniProt P30926+P43681); assay: Ray2010 Assay 74
Source text: as §1

[21] = target: Metabotropic glutamate receptor 1 (Homo sapiens, UniProt Q13255); assay: Ray2010 Assay 74
Source text: as §1

[22] = target: Metabotropic glutamate receptor 2 (Homo sapiens, UniProt Q14416); assay: Ray2010 Assay 74
Source text: as §1

[23] = target: Metabotropic glutamate receptor 4 (Homo sapiens, UniProt Q14833); assay: Ray2010 Assay 74
Source text: as §1

[24] = target: Metabotropic glutamate receptor 5 (Homo sapiens, UniProt P41594); assay: Ray2010 Assay 74
Source text: as §1

[25] = target: T3, Prostaglandin E2 receptor EP3 subtype (Homo sapiens, UniProt P43115); assay: Ray2010 Assay 74
T3 sequence (P43115 whole entry): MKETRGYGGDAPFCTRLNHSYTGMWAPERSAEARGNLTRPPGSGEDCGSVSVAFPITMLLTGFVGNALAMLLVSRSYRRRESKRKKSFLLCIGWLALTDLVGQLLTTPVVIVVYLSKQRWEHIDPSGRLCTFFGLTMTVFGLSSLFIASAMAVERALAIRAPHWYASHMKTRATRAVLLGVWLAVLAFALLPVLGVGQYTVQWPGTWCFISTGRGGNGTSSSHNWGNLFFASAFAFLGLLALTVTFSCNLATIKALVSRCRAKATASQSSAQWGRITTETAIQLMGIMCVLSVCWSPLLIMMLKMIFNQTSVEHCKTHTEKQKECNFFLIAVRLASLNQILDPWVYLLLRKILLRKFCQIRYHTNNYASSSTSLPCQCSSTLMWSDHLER
Source text: as §1

Sequence of 5-hydroxytryptamine receptor 7 (P34969 whole entry): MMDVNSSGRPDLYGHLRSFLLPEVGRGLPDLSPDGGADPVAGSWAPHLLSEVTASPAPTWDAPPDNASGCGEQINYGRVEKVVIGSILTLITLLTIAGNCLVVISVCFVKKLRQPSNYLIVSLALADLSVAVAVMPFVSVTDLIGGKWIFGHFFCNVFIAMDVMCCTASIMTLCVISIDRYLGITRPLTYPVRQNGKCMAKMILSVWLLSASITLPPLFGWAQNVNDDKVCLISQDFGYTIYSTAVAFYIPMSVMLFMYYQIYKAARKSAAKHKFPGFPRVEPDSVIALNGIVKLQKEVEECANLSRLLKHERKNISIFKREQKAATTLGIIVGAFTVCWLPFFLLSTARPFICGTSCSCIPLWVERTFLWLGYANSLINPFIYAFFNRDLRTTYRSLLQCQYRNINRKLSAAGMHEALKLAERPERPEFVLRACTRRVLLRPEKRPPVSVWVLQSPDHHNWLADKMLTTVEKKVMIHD
Sequence of Cannabinoid receptor 1 (P21554 whole entry): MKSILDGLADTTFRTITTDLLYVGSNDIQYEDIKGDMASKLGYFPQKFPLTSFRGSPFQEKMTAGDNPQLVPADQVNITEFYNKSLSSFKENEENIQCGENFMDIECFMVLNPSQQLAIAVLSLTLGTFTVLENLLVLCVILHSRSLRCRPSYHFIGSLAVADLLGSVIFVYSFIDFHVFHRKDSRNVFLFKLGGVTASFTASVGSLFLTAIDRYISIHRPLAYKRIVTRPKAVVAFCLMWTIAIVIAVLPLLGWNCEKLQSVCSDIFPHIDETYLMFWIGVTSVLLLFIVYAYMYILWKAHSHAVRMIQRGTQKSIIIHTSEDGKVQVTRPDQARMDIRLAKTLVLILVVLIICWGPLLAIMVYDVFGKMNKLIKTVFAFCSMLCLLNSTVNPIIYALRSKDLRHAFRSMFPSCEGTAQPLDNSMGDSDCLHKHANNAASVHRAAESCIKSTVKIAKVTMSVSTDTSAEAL
Sequence of Sigma non-opioid intracellular receptor 1 (Q99720 whole entry): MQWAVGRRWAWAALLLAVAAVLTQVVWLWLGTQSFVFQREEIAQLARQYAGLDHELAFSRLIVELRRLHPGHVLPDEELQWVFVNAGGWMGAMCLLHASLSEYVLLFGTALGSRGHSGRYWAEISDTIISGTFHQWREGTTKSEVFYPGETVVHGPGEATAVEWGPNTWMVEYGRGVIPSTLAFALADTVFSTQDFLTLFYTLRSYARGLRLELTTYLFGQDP
Sequence of Neuronal acetylcholine receptor subunit alpha-2/beta-2 (P17787 whole entry): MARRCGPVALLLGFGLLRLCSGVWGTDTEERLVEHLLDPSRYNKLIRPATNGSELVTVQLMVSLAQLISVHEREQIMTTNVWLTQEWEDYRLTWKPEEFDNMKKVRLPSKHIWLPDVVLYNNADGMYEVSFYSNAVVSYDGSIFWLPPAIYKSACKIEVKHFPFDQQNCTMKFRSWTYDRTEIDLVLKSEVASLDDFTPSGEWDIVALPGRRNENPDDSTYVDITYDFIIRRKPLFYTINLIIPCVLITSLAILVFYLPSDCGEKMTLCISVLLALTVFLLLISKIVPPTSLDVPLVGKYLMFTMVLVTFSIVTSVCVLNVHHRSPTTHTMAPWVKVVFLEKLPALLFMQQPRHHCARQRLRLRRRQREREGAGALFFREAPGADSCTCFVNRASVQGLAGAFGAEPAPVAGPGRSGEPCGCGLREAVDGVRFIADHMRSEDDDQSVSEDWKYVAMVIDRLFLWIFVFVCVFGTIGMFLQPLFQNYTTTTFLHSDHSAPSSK
Sequence of Neuronal acetylcholine receptor subunit alpha-2/beta-2 (Q15822 whole entry): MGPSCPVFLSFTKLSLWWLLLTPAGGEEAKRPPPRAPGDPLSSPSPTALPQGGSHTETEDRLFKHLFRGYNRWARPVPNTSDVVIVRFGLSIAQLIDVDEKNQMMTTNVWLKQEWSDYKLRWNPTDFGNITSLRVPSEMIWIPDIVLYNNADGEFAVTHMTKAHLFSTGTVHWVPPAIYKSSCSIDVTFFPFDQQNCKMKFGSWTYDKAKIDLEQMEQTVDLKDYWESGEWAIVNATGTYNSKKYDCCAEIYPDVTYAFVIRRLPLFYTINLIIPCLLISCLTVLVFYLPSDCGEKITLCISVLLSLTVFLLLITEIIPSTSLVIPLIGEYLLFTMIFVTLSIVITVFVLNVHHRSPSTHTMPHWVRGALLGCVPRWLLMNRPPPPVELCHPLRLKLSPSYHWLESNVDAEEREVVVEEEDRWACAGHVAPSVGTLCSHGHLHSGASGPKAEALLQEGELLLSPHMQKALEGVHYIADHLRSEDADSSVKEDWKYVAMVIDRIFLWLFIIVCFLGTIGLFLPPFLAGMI
Sequence of Neuronal acetylcholine receptor subunit alpha-3/beta-2 (P17787 whole entry): as the sequence (P17787 whole entry) above
Sequence of Neuronal acetylcholine receptor subunit alpha-3/beta-2 (P32297 whole entry): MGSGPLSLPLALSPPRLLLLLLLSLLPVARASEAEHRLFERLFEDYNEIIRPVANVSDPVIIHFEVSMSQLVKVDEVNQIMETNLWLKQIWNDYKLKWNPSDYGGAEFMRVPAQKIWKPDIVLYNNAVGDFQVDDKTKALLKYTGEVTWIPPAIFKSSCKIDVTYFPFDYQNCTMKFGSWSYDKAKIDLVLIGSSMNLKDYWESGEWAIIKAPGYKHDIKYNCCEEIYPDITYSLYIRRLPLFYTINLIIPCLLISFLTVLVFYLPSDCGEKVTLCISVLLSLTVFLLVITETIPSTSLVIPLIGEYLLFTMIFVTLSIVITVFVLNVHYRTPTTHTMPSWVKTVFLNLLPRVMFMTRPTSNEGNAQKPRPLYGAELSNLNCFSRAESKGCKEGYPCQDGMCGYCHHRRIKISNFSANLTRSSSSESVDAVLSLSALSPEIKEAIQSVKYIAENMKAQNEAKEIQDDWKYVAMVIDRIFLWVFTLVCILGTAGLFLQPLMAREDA
Sequence of Glutamate receptor 4 (P48058 whole entry): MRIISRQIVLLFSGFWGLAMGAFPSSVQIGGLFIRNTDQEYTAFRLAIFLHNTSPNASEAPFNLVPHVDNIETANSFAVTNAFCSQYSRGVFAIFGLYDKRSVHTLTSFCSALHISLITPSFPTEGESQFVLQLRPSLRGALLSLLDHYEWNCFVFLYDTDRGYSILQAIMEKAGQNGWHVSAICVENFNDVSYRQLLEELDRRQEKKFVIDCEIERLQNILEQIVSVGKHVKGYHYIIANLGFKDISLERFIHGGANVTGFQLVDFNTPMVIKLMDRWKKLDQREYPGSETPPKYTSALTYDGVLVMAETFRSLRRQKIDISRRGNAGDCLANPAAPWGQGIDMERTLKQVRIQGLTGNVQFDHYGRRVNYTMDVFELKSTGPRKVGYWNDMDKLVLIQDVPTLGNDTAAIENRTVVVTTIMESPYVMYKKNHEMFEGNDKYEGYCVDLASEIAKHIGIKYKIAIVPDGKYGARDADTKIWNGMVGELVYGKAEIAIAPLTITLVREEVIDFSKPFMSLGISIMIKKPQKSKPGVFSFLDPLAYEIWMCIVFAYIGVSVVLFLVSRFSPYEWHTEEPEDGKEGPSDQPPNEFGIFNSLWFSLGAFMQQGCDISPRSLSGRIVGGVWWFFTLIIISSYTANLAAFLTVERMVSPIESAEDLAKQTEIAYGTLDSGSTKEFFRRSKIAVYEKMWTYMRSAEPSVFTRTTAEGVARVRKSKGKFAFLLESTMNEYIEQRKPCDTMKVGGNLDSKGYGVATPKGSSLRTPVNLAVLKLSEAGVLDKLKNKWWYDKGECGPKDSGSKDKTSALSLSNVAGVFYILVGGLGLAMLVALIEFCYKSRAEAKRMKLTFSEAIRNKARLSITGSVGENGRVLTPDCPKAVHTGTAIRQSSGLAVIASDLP
Sequence of Beta-2 adrenergic receptor (P07550 whole entry): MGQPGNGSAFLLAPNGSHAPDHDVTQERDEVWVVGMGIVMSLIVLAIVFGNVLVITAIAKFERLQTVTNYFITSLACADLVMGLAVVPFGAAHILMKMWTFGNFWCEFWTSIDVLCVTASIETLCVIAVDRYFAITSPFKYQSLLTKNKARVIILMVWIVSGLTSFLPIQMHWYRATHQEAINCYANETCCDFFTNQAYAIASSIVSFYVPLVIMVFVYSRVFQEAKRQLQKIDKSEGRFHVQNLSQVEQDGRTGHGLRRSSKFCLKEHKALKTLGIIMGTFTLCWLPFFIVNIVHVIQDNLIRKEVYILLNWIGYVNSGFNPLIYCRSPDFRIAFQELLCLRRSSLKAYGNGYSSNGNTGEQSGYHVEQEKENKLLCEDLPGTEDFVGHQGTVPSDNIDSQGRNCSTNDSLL
Sequence of Neuronal acetylcholine receptor subunit alpha-2/beta-4 (Q15822 whole entry): as the sequence (Q15822 whole entry) above
Sequence of Neuronal acetylcholine receptor subunit alpha-2/beta-4 (P30926 whole entry): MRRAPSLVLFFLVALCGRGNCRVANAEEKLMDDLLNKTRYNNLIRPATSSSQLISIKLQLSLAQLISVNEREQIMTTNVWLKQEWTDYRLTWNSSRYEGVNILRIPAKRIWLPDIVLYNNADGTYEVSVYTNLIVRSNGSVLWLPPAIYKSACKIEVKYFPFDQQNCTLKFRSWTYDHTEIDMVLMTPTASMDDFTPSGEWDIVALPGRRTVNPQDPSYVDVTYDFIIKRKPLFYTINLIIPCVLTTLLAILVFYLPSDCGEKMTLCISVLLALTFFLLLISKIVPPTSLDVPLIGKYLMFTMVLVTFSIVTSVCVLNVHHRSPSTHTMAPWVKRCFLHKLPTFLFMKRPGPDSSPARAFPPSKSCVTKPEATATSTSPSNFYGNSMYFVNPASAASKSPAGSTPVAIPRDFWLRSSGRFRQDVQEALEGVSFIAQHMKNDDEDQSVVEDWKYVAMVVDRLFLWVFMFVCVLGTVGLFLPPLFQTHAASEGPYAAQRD
Sequence of Sigma intracellular receptor 2 (Q5U3Y7 whole entry): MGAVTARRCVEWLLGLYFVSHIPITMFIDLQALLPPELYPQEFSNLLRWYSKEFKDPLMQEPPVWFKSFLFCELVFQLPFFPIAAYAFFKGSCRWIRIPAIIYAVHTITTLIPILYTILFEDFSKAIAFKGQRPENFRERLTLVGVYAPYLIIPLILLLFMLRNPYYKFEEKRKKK

COc1cc(CC(C)N)cc(OC)c1OC (stereo not given) was tested, and the Ki [1] was 0.749 µM, the Ki [2] was > 10 µM and the Ki [3] was > 10 µM. For the same compound, the Ki [4] was > 10 µM and the Ki [5] was 0.536 µM.

For CC[C@H]1C[C@@H]2C[C@H]3c4[nH]c5ccc(OC)cc5c4CCN(C2)[C@@H]13, the Ki [6] was > 10 µM, the Ki [7] was > 10 µM and the Ki [8] was 0.0904 µM. The Ki [9] was 50.1 µM, the Ki [10] was 12.5 µM and the Ki [11] was > 10 µM. The Ki [12] was > 10 µM, the Ki [13] was > 10 µM and the Ki [5] was 5.84 µM.

CCc1cc(OC)c(CC(C)N)cc1OC (stereo not given) was tested, and the Ki [1] was 1.23 µM, the Ki [2] was > 10 µM and the Ki [4] was > 10 µM. For the same compound, the Ki [5] was 9.78 µM.

COc1ccc2[nH]c(C)c(CCN(C)C)c2c1 [[2-(5-Methoxy-2-methyl-1H-indol-3-yl)-ethyl]-dimethyl-amine (C2H2O)] was tested, and the Ki [13] was > 10 µM, the Ki [14] was > 10 µM and the Ki [15] was > 10 µM. For the same compound, the Ki [16] was > 10 µM, the Ki [17] was > 10 µM and the Ki [18] was > 10 µM. For the same compound, the Ki [19] was > 10 µM and the Ki [20] was > 10 µM.

With CNC(C)Cc1ccc2c(c1)OCO2 (stereo not given) [mdma] the Ki [1] was > 10 µM, the Ki [3] was > 10 µM and the Ki [4] was > 10 µM. For the same compound, the Ki [12] was > 10 µM, the Ki [21] was > 10 µM and the Ki [22] was > 10 µM. The Ki [23] was > 10 µM, the Ki [24] was > 10 µM and the Ki [14] was 8.25 µM. The Ki [15] was > 10 µM, the Ki [16] was > 10 µM and the Ki [17] was > 10 µM. The Ki [20] was > 10 µM and the Ki [25] was > 10 µM.
